Biological target: Aβ40 (amyloid β-protein, monomer) (Homo sapiens, UniProt P05067)
Test: […]-1H HSQC NMR titration
Type: binding

Sequence of Aβ40 (amyloid β-protein, monomer) (P05067 672-711 limits assumed): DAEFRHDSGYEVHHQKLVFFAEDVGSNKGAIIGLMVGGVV

Kd: 310 ± 130 µM
SMILES: COc1ccc(/C=C/C(=O)Nc2ccccc2C(=O)O)cc1OC [tranilast, N-[3,4-Dimethoxycinnamoyl]-anthranilic acid]
